Experimental data taken from paper PMC3500438 (Organic letters, 2012).
“Also recorded” adds a separate entry of the source.

Columns and labels:
[1] = system: 68 GPCRs, ion channels and transporters; assay: Lead Profiling screen; assay type: binding; conditions: 10 μM, 68 targets
5-HT2B = 5-HT2B (Homo sapiens, UniProt P41595); assay: Lead Profiling screen radioligand binding, 5-HT2B
[2] = system: 97 kinases (both wild-type and mutants); assay: KINOMEscan panel; assay type: binding; conditions: 10 μM
healthy cells = conditions: cited from earlier work
[3] = cited from earlier work
rat PDE4 (Rolipram) = assay: rat Rolipram radioligand binding; parameters: species or system Wistar rat; conditions: for IC50: read-out: rat Rolipram IC50; for IC50 / Ki: Wistar rat brain, 1.8 nM [3H] rolipram, 1% DMSO, 60 min at 4 °C, 50 mM Tris-HCl, pH 7.4; for Ki: read-out: rat Rolipram Ki

Chain of 5-HT2B (P41595 whole entry, species assumed): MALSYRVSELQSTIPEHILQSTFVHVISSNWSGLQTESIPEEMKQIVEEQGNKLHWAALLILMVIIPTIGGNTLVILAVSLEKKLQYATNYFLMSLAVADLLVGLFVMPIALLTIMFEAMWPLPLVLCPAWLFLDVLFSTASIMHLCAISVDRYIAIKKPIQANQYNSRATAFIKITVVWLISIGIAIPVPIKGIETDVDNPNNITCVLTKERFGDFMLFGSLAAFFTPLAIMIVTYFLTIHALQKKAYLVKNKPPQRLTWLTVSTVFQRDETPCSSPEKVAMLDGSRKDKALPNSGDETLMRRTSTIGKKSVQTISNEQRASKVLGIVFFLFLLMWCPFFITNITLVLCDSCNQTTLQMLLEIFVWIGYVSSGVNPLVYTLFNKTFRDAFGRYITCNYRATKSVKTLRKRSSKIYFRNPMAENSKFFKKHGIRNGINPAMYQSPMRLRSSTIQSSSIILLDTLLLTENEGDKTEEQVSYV

SMILES | ancillary pharmacology in Lead Profiling screen [1] | 5-HT2B activity in radioligand binding panel (5-HT2B; 10 μM) | Ki (5-HT2B; read-out: 5-HT2B Ki, full concentration-response-curve) | activity in KINOMEscan panel [2] | toxicity to healthy cells / cytotoxicity (healthy cells) | antimalarial activity [3] | PDE4/Rolipram activity in radioligand binding panel (rat PDE4 (Rolipram); 10 μM) | IC50 (rat PDE4 (Rolipram)) | Ki (rat PDE4 (Rolipram)) | PDE4 activity (in words) (rat PDE4 (Rolipram); rat PDE4 (Rolipram) and human PDE4)
Nc1ncnc2c1ncn2Cc1nc2ccccc2c2cc[nH]c12 [compound 6, aplidiopsamine A] | activity at only two targets | 62% | ~10 µM | uniformly inactive | without toxicity to healthy cells; also recorded: not be cytotoxic | potent antimalarial agent | 74% | 3.3 µM | 1.2 µM | 
Cc1nc2ccccc2c2cc[nH]c12 [compound 1, marinoquinoline A] |  |  |  |  |  |  |  | > 100 µM | > 100 µM | inactive
